Measured values published in patent US20260224688A1, “HELPER LIPIDS FOR NUCLEIC ACID DELIVERY” (SANOFI PASTEUR INC., priority 2023, published 2026).

Tests used:
[1] = Dynamic light scattering of lipid nanoparticles (size, PDI); format: physicochemical
Method: (§1) Lipid nanoparticle formulations 3 were prepared by Process A at a molar ratio of 40:1.5:30:28.5 (Cationic Lipid: DMG-PEG2000: Cholesterol: Helper Lipid) with the cationic lipids and helper lipids disclosed in the tables below. The Polydispersity Index (Pdl) of lipid nanoparticles can be determined by diluting the formulation in 10% trehalose at about 0.1 mg/ml mRNA concentration and then measuring the size on Malvern zetasizer. The lipid nanoparticle size can be obtained with Malvern Zetasizer Nano-ZS.
Dynamic light scattering (DLS) measurements were performed using a Malvern Instruments Zetasizer with a backscattering detector angle of 173° and a 4-mW, 633-nm He—Ne laser (Worcestershire, UK). The samples were analyzed by diluting in 10% Trehalose and measuring the size and Poly dispersity Index (PDI) in an optical grade polystyrene cuvette.

[2] = mRNA encapsulation efficiency of lipid nanoparticles; format: physicochemical; settings: for Encapsulation efficiency (EE): LNP with cationic lipid CL-A
Excerpt: In embodiments, the lipid nanoparticle encapsulates a nucleic acid, optionally an mRNA encoding a peptide or protein. In embodiments, the lipid nanoparticle encapsulates an mRNA encoding a peptide or protein, optionally for use in a vaccine. In embodiments, the peptide is an antigen. As used herein, the phrase “encapsulation percentage” refers to the fraction of therapeutic agent (e.g. mRNA) that is effectively encapsulated within a liposomal-based vehicle (e.g. a lipid nanoparticle) relative to the initial fraction of therapeutic agent present in the lipid phase. In embodiments, the lipid nanoparticles have an encapsulation percentage for mRNA of at least 50%. In embodiments, the lipid nanoparticles have an encapsulation percentage for mRNA of at least 55%. In embodiments, the lipid nanoparticles have an encapsulation percentage for mRNA of at least 60%. In embodiments, the lipid nanoparticles have an encapsulation percentage for mRNA of at least 65%. In embodiments, the lipid nanoparticles have an encapsulation percentage for mRNA of at least 70%. In embodiments, the lipid nanoparticles have an encapsulation percentage for mRNA of at least 75%. In embodiments, the lipid nanoparticles have an encapsulation percentage for mRNA of at least 80%. In embodiments, the lipid nanoparticles have an encapsulation percentage for mRNA of at least 85%. In embodiments, the lipid nanoparticles have an encapsulation percentage for mRNA of at least 90%. In embodiments, the lipid nanoparticles have an encapsulation percentage for mRNA of at least 95%. In embodiments, the encapsulation percentage is calculated by performing the Ribogreen assay (Invitrogen) with and without the presence of 0.1% Triton-X 100.
The lipid nanoparticles in the examples of the present invention were formulated using Process A of WO 2018/089801 (see, e.g., Example 1 and FIG. 1 of WO 2018/089801). Process A (“A”) relates to a conventional method of encapsulating mRNA by mixing mRNA with a mixture of lipids, without first pre-forming the lipids into lipid nanoparticles. In an exemplary process, an ethanolic solution of a mixture of lipids (cationic lipid, phosphatidylethanolamine, cholesterol, and polyethylene glycol-lipid) at a fixed lipid to mRNA ratio were combined with an aqueous buffered solution of target mRNA at an acidic pH under controlled conditions to yield a suspension of uniform LNPs. After ultrafiltration and diafiltration into a suitable diluent system, the resulting nanoparticle suspensions were diluted to final concentration, filtered, and stored frozen at −80° C. until use.
as §1

hEPO [3] = test: IM EPO expression of LNPs containing new helper lipids (hEPO in serum by ELISA); format: in vivo, female BALB/cJ mice; settings: single IM injection; for 24-h EPO: serum 24 hours post injection
Method: Lipid nanoparticles were formulated containing the four lipid components shown below at a ratio of 40:30:28.5:1.5, complexed with a hEPO messenger RNA. • Cationic lipid, 40 mol % • Phospholipid (PEA) helper lipid, 30 mol % • Cholesterol, 28.5 mol % • DMG-PEG-2K (1,2-dimyristoyl-rac-glycero-3-methoxypolyethyleneglycol), 1.5 mol % The cationic lipid component of each formulation was selected from the compounds in the table below: […]
EPO expression studies were conducted with female BALB/cJ mice 6-8 weeks of age. Mice were dosed with […] EPO mRNA in 30 μL of LNPs by a single intramuscular (IM) injection into the gastrocnemius leg muscle. Blood samples were taken 6 and 24 hours post injection and hEPO levels were measured in the blood serum of the mice using an ELISA assay according to the manufacture's protocol. WO2022/099003 A1 also describes an in vivo assay for intramuscular administration (e.g. on page 46, paragraph [00206]).

hEPO [4] = test: IV EPO expression of LNPs (tail vein injection); format: in vivo, female BALB/cJ mice; settings: cationic lipid CL-0137, helper lipid 30 mol %; 0.017 μg EPO mRNA tail vein; 6 hours; DOPE = 1
Method: Lipid nanoparticles were formulated containing the four lipid components shown below at a ratio of 40:30:28.5:1.5, complexed with a hEPO messenger RNA. • Cationic lipid CL-0137, 40 mol % • Helper lipid, 30 mol % • Cholesterol, 28.5 mol % • DMG-PEG-2K (1,2-dimyristoyl-rac-glycero-3-methoxypolyethyleneglycol), 1.5 mol %
EPO expression studies were conducted with female BALB/cJ mice 6-8 weeks of age. Mice were dosed with 0.017 μg EPO mRNA LNPs in a volume of 5 ul by a single tail vein injection. Blood samples were taken 6 hours post injection and hEPO levels were measured in the blood serum of the mice using an ELISA assay according to the manufacture's protocol.

[5] = LNP with cationic lipid CL-A, hEPO mRNA, 40:30:28.5:1.5
[6] = CL-B LNP, serum 6 hours post injection
[7] = CL-A LNP, 0.1 μg EPO mRNA in 30 μL, serum 6 hours post injection

SMILES | Polydispersity Index (PDI) ([1]; LNP with cationic lipid CL-A) | Size [1, 5] | PDI ([1]; LNP with cationic lipid CL-B) | Size ([1]; LNP with cationic lipid CL-B) | PDI ([1]; LNP with cationic lipid CL-C) | Size ([1]; LNP with cationic lipid CL-C) | PDI ([1]; LNP with cationic lipid CL-D) | Size ([1]; LNP with cationic lipid CL-D) | Encapsulation efficiency (EE) [2] | EE ([2]; LNP with cationic lipid CL-B) | EE ([2]; LNP with cationic lipid CL-C) | EE ([2]; LNP with cationic lipid CL-D) | 6-h EPO (hEPO [3]; [6]) | 24-h EPO (hEPO [3]; CL-B LNP) | 6-h EPO (hEPO [3]; CL-C LNP) | 6-h EPO (hEPO [3]; CL-C LNP, (6-h)) | Normalized Mean IV EPO expression (hEPO [4]) | 6-h EPO (hEPO [3]; [7]) | 24-h EPO (hEPO [3]; CL-A LNP) | further results
CCCCCCCCOC(=O)CCCCCCCC(=O)OCC(COP(=O)(O)OCCN(C)C)OC(=O)CCCCCCCC(=O)OCCCCCCCC (centres unmarked) [Compound 7, O′^1,O^1-(3-(((2-(Dimethylamino)ethoxy)(hydroxy)phosphoryl)oxy)-propane-1,2-diyl) 9-dioctyl di(nonanedioate)] | 0.09 | 120 nm | 0.111 | 88.2 nm | 0.099 | 87.4 nm | 0.089 | 121.9 nm | 88% | 92% | 92% | 85% | 3.7 ng/mL | 1.4 ng/mL | 2.6 ng/mL | 5.5 ng/mL | 0.52 |  |  | 
CC(C)CCCCOC(=O)CCCCCCC(=O)OCC(COP(=O)(O)OCCN(C)C)OC(=O)CCCCCCC(=O)OCCCCC(C)C (centres unmarked) [Compound 8, O′^1,O^1-(3-(((2-(Dimethylamino)ethoxy)(hydroxy)phosphoryl)-oxy)propane-1,2-diyl) 8-bis(5-methylhexyl) di(octanedioate)] | 0.06 | 116 nm | 0.146 | 92.3 nm | 0.102 | 91.1 nm | 0.061 | 151.4 nm | 89% | 18% | 87% | 28% |  |  | 0.5 ng/mL | 1.4 ng/mL | 0.29 |  |  | 
CCCCCCCCCC(CCCCCCCCC)C(=O)OCC(COP(=O)(O)OCCN(C)C)OC(=O)C(CCCCCCCCC)CCCCCCCCC (centres unmarked) [Compound 9, 3-(((2 (Dimethylamino)ethoxy)(hydroxy)phosphoryl)oxy)-propane-1,2-diyl bis(2-nonylundecanoate)] | 0.126 | 112 nm | 0.113 | 108.2 nm | 0.087 | 110.1 nm |  |  | 84% | 78% | 78% |  | 5.6 ng/mL | 3.3 ng/mL | 12.2 ng/mL | 22.3 ng/mL | 3.68 |  |  | 
CCCCCCCCC(CCCCC)COC(=O)CCC(=O)OCC(COP(=O)(O)OCCN(C)C)OC(=O)CCC(=O)OCC(CCCCC)CCCCCCCC (centres unmarked) [Compound 10, O,O′-(3-(((2-(Dimethylamino)ethoxy)(hydroxy)phosphoryl)-oxy)propane-1,2-diyl) bis(2-pentyldecyl) disuccinate)] | 0.046 | 171 nm | 0.086 | 95.9 nm | 0.022 | 89.3 nm | 0.129 | 100.5 nm | 90% | 83% | 84% | 93% | 12.9 ng/mL | 10.4 ng/mL | 10.3 ng/mL | 14.8 ng/mL | 1.72 | 20.227 ng/mL | 10.447 ng/mL | 
CCCCCCCCOC(=O)CCCCCCCC(=O)OC(COC(=O)CCCCCCC(=O)OC(CCCCCCCC)CCCCCCCC)COP(=O)(O)OCCN(C)C (centres unmarked) [Compound 11, 1-(1-(((2-(Dimethylamino)ethoxy)(hydroxy)phosphoryl)oxy)-3-((8-(heptadecan-9-yloxy)-8-oxooctanoyl)oxy)propan-2-yl) 9-octyl nonanedioate] | 0.068 | 173 nm | 0.066 | 102.1 nm | 0.119 | 85.5 nm | 0.121 | 96.6 nm | 94% | 88% | 86% | 93% | 5.2 ng/mL | 4.8 ng/mL | 7.4 ng/mL | 8.7 ng/mL | 1.17 | 19.251 ng/mL | 11.25 ng/mL | 
CCCCCCCCC(CCCCCCCC)OC(=O)CCCCCCC(=O)OCC(COP(=O)(O)OCCN(C)C)OC(=O)CCCCCCC(=O)OC(CCCCCCCC)CCCCCCCC (centres unmarked) [Compound 12, O′^1,O^1-(3-(((2-(Dimethylamino)ethoxy)(hydroxy)phosphoryl)-oxy)propane-1,2-diyl) 8-di(heptadecan-9-yl) di(octanedioate)] | 0.050 | 160 nm | 0.132 | 109.6 nm | 0.072 | 110.1 nm | 0.094 | 113.4 nm | 93% | 93% | 90% | 92% | 39.6 ng/mL | 24 ng/mL | 26.2 ng/mL | 38.4 ng/mL | 2.23 | 28.9209 ng/mL | 19.526 ng/mL | PDI ([1]; LNP with cationic lipid CL-E): 0.072; Size ([1]; LNP with cationic lipid CL-E): 112.6 nm; EE ([2]; LNP with cationic lipid CL-E): 91%
CCCCCCCCC(CCCCCCCC)OC(=O)CCCCCCC(=O)OC[C@@H](COP(=O)(O)OCCN(C)C)OC(=O)CCCCCCC(=O)OC(CCCCCCCC)CCCCCCCC [Compound 13] | 0.048 | 166 nm | 0.127 | 141.9 nm | 0.112 | 98.0 nm |  |  | 94% | 96% | 93% |  | 53.8 ng/mL |  |  | 64.4 ng/mL | 1.47 | 8.348 ng/mL |  | 
